Data published in patent US20220378740A1, “COMPOSITIONS AND METHODS OF MAKING EXPANDED HEMATOPOIETIC STEM CELLS USING DERIVATIVES OF CARBAZOLE” (Transfusion Health, LLC, priority 2019, published 2022).

Assays:
[1] = system: HSCs derived from cord blood; test: Long-term (14 day) expansion of hematopoietic stem cells derived from cord blood; type: cell-based, human; details: 14 days in culture; Compound 2.001 at 10 μM, Compound 2.002 at 1 μM, Compound 2.003 at 10 μM
Experimental: (§1) CD34+ cells from cord blood were purchased from STEMCELL Technologies. Primary human CD34+ cells were isolated by the supplier from cord blood samples using positive immunomagnetic separation techniques. Cells were thawed and gradually brought to room temperature. Samples were washed, then placed in overnight culture in StemSpan with 100 ng/ml each of FLT3L, TPO, SCF, and IL-6. Eighteen to twenty-four hours later (day 1), cells were counted and immunophenotyped (flow cytometry on an Invitrogen Attune N×T cytometer).
(§2) All incubations for this experiment took place at 3%˜ oxygen (controlled by nitrogen) and […]. Following seven days of culture, cells from wells were collected and phenotypes were analyzed (flow cytometry on an Invitrogen Attune N×T cytometer).
Cells were cultured to seven days as described in Example 5. Following seven days in culture, 25% of cells from selected wells were passaged to 12-well plates (2 ml total volume), with conditions for these wells prepared as on day 1. Wells selected were: Compound 2.001 at 10 μM, Compound 2.002 at 1 μM, Compound 2.003 at 10 μM, and base conditions with vehicle control (DMSO). Cells were then allowed seven further days of expansion prior to analysis at day 14. Cell numbers calculated at day 14 account for the passaging of the cells at day seven.

[2] = system: CD34+ cells from cord blood; test: Expansion of cord blood-derived CD34+ cells in culture, fold change days 1 to 7 (flow cytometry); type: cell-based, human; details: relative to vehicle control (DMSO), 3% oxygen
Experimental: as §1
Approximately 1000 live cells were plated into each well of 96-well plates (total volume 200 μl); exact cell numbers dispensed per well were quantified with flow cytometry for later calculations.
Media for testing compounds of Formula I, except for compound 2.015, was prepared using StemSpan SFEM (STEMCELL Technologies). Media for testing compound 2.015 was prepared using Alpha-MEM without phenol red (Gibco) with 10% (v/v) heat inactivated fetal bovine serum (FBS). All other treatments are the same for all tested compounds. Culture conditions also included an antibiotic solution that includes penicillin, streptomycin, and amphotericin B to avoid contamination. Additional media components and concentrations used for the compounds tested are described in Table 2.
as §2
The graphs in FIG. 1-5 report the fold change in cells between days 1 and 7. Each point in the figures reports the average fold change of the indicated number of replicates at the noted concentration of the compound of Formula I tested. Error bars display the maximum and minimum fold change measured at that concentration. The dashed line reports the expansive effect of the base conditions (i.e. vehicle control).
Table 3, below, summarizes the relative expansive effects of Compounds 2.001 to 2.004 and 2.015 at the indicated concentration. It is calculated as shown below: […]

[3] = 3.162 μM compound, StemSpan SFEM
[4] = 2.819 μM compound, Alpha-MEM without phenol red with 10% FBS

Row | SMILES | expansion of HSCs from cord blood in extended culture [1] | CD34 effect (relative expansive effect on CD34+ cells) ([2]; 1 μM compound, StemSpan SFEM) | CD90 effect (relative expansive effect on CD34+/CD133+/CD90+ cells) ([2]; 1 μM compound, StemSpan SFEM) | also measured
1 | CC(C)(C)C(=O)Nc1ccc2c(c1)[nH]c1ccccc12 [Compound 2.002, N-(9H-carbazol-2-yl)-2,2-dimethylpropanamide] | expand HSCs from cord blood for at least 14 days in culture | ++++ (1.8 ≤ × < 2.2) | ++++ (1.8 ≤ × < 2.2) | –
2 | CC(=O)Nc1ccc2c(c1)oc1ccccc12 [Compound 2.003, N-{8-oxatricyclo[7.4.0.0^2,7]trideca-1(13),2(7),3,5,9,11-hexaen-5-yl}acetamide] | expand HSCs from cord blood for at least 14 days in culture | – | – | CD34 effect (relative expansive effect on CD34+ cells) [2, 3]: ++++ (1.8 ≤ × < 2.2); CD90 effect (relative expansive effect on CD34+/CD133+/CD90+ cells) [2, 3]: ++++ (1.8 ≤ × < 2.2)
3 | COc1cc2c(cc1N)oc1ccccc12 [Compound 2.015] | – | – | – | CD34 effect (relative expansive effect on CD34+ cells) [2, 4]: + (1 < × < 1.2); CD90 effect (relative expansive effect on CD34+/CD133+/CD90+ cells) [2, 4]: + (1 < × < 1.2)
4 | CC(=O)Nc1ccc2c(c1)[nH]c1ccccc12 [Compound 2.001, N-(9H-carbazol-2-yl)acetamide] | expand HSCs from cord blood for at least 14 days in culture | – | – | CD34 effect (relative expansive effect on CD34+ cells) ([2]; 10 μM compound, StemSpan SFEM): ++++ (1.8 ≤ × < 2.2); CD90 effect (relative expansive effect on CD34+/CD133+/CD90+ cells) ([2]; 10 μM compound, StemSpan SFEM): +++++ (2.2 ≤×)
5 | CC(C)(C)C(=O)Nc1ccc2c(c1)oc1ccccc12 [Compound 2.004, 2,2-dimethyl-N-{8-oxatricyclo[7.4.0.0^2,7]trideca-1(13),2(7),3,5,9,11-hexaen-5-yl}propanamide] | – | +++ (1.6 ≤ × < 1.8) | ++ (1.2 ≤ × < 1.6) | –
